Assay results: patent publication US20210186947A1, “TOMM6-INTERACTING EXTRACTS AND COMPOUNDS FOR USE IN THE TREATMENT AND PROPHYLAXIS OF NERVOUS SYSTEM DISEASES, ATHEROSCLEROSIS, HEPATITIS B INFECTION AND HUMAN PAPILLOMA VIRUS (HPV) INFECTION” (ETH ZURICH, priority 2018, published 2021)

Columns and labels:
Format in all cases: in vivo
[1] = system: atherosclerotic lesions in the aorta; assay: Atherosclerotic lesion area in oil red O-stained aortas of ApoE-/- mice; conditions: 9-month-old ApoE-/- mice, 10 mg/kg/d in drinking water for 8 months
Description: ApoE−/− mice (Taconic Biosciences, Rensselaer, N.Y., USA) with deficiency of apolipoprotein E (ApoE−/−) due to disruption of the endogenous ApoE gene were used as a genetic model of atherosclerosis (Piedrahita et al., Proc. Natl. Acad. Sci. U.S.A., 89, 4471-4475, 1992). Atherosclerotic lesion area was determined by quantitative image analysis with oil red O-stained aortas. Total plasma cholesterol was determined by a commercial kit (Sigma). Mice were kept on a 12 h dark and 12 h light cycle, had free access to food and water, and were fed a standard rodent chow (AIN-95-based diet without vitamin E supplementation and with 7% fat and 0.15% cholesterol). For the study, we used ApoE−/− mice on a B6 (C57BL/6J) background and non-transgenic B6 control mice. Alizarin treatment (10 mg/kg/day in drinking water) was initiated at an age of 4 weeks and continued for eight months until the end of the observation period. […]
(§1) Alzheimer's Disease (AD) is the most frequent form of dementia in the elderly. […] Atherosclerotic lesion area was assessed with oil red O-stained aortas isolated from 9-month-old ApoE−/− mice (FIG. 17A). […] The aortic expression levels of neuronal marker genes of alizarin-treated ApoE−/− mice were determined compared to untreated ApoE−/− mice and untreated B6 mice without atherosclerosis (FIG. 17D,E).

[2] = system: synaptosomal nerve-associated protein 25 (Snap25); assay: Whole genome microarray gene expression analysis of aortic genes: Snap25; conditions: ApoE-/- mice, 10 mg/kg/day for 8 months
Description: Whole genome microarray gene expression profiling was performed with aortic specimens isolated from 9-month-old ApoE−/− mice without treatment and with oral treatment for 8 months with alizarin (10 mg/kg/day), and untreated age-matched B6 control mice. Total RNA was isolated by the RNeasy Mini kit according to the protocol of the manufacturer (Qiagen). RNA purity was between 1.8 and 2 as determined by the absorbance ratio of 260/280. RNA quality and absence of signs of degradation were also controlled by RNA electrophoresis on a denaturing agarose gel by the presence of bright bands of 28S and 18S ribosomal RNA. Total RNA was processed for whole genome microarray gene expression profiling with the GeneChip One-Cycle Target Labeling System (Affymetrix) according to the protocol of the manufacturer (Affymetrix GeneChip Expression Analysis Technical Manual Rev. 5). […]
as §1

[3] = system: hippocampal neuronal cell bodies (NeuN); assay: Hippocampal neuronal loss in Tg2576 mice subjected to CUMS, binding assay with [125I]-labeled anti-NeuN antibody; conditions: 15 months-old Tg2576 mice, 3 months of CUMS, treated during CUMS; compounds 10 mg/kg/d
[4] = system: hyperphosphorylated PHF-Tau; assay: Hippocampal hyperphosphorylated PHF-Tau in Tg2576 mice subjected to CUMS, binding assay with [125I]-labeled AT8 antibody; conditions: 15 months-old Tg2576 mice, 3 months of CUMS, treated during CUMS; compounds 10 mg/kg/d

## O=C1c2ccccc2C(=O)c2c1ccc(O)c2O [Compound-1, 1,2-dihydroxyanthraquinone]
[1]
  atherosclerotic lesion area, lower compared to untreated ApoE-/- mice: 3.6 fold
[2]
  aortic expression level of Snap25: not down-regulated and maintained at the levels of the non-transgenic B6 controls
[3]
  hippocampal neuronal loss: prevented
[4]
  hippocampal content of hyperphosphorylated PHF-Tau: significantly decreased hippocampal content of hyperphosphorylated PHF-Tau
